Experimental data reported in patent publication US11542274B1, “Therapeutic compounds and methods of use thereof” (AGENCY FOR SCIENCE, TECHNOLOGY AND RESEARCH (A*STAR), priority 2019, dated 2023).

target: truncated CRBN (319-427) (Homo sapiens (Human), UniProt Q96SW2); test: Fluorescence binding assay (fluorescence quenching), affinity to E3-CEREBLON (CRBN)-ubiquitin ligase; conditions: ubiquitination moiety and linker, pH 6.5
Protocol: Fluorescence quenching end point measurements were performed in black polystyrene 384-plates on Tecan Safire monochromator reader with the following settings: excitation 280 nm; excitation bandwidth 10.0 nm; emission collection 340 nm; emission bandwidth 20.0 nm; high sensitivity flash mode; integration time 40 μS; delay 0 μm. All measurements were done in duplicates; GraphPad Prism 5.03 was used for data evaluation, curve fitting, plotting and determination of IC50 values.
Serial dilutions of each tested ligands were mixed with truncated CRBN (319-427) to a final volume of 25 μL in the assay buffer (20 mM sodium phosphate buffer, pH 6.5, with 150 mM sodium chloride). The final concentration of CRBN in all assay will be 5-10 μM with DMSO level at 4%. A control lanes were prepared with only tested ligands without the addition of CRBN, top up with assay buffer to 25 μL. Plates were incubated for 5 minutes and analyzed using the monochromator plate reader.
IC50 is the compound concentration that causes 50% quenching of the desired activity.

Sequence of truncated CRBN (319-427) (Q96SW2 319-427): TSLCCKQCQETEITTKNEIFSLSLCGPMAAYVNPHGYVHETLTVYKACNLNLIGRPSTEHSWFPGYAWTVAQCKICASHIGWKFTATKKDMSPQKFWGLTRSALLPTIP

IC50 [µM] | Structure (SMILES)
1 to 100 | [N-]=[N+]=NCCOCCOCCOCCNC(=O)c1cc(-c2ccc3c(c2)NC(=O)C3)ccn1 [Compound 084, N-(2-(2-(2-(2-azidoethoxy)ethoxy)ethoxy)ethyl)-4-(2-oxoindolin-6-yl)picolinamide]
100 to 300 | [N-]=[N+]=NCCOCCOCCOCCNc1cc(-c2ccc3c(c2)NC(=O)C3)ccn1 [Compound 085, 6-(2-((2-(2-(2-(2-azidoethoxy)ethoxy)ethoxy)ethyl)amino)pyridin-4-yl)indolin-2-one]
1 to 100 | [N-]=[N+]=NCCOCCOCCOCCNc1ccc(C(=O)Nc2ccc3c(c2)CC(=O)N3)cn1 [Compound 086, 6-((2-(2-(2-(2-azidoethoxy)ethoxy)ethoxy)ethyl)amino)-N-(2-oxoindolin-5-yl)nicotinamide]
> 300 | NCCCCCNc1cc(-c2ccc3c(c2)NC(=O)C3)ccn1 [Compound 087, 6-(2-((5-aminopentyl)amino)pyridin-4-yl)indolin-2-one]
100 to 300 | [N-]=[N+]=NCCOCCOCCOCCNc1cc(-c2ccc3c(c2)CC(=O)N3)ccn1 [Compound 088, 5-(2-((2-(2-(2-(2-azidoethoxy)ethoxy)ethoxy)ethyl)amino)pyridin-4-yl)indolin-2-one]

same assay, conditions: ubiquitination moiety, pH 6.5

IC50 [µM] | Structure (SMILES)
> 300 | CN1CCN(C(=O)c2ccc3c(c2)CC(=O)N3)CC1 [Compound 067, 5-(4-methylpiperazine-1-carbonyl)indolin-2-one]
100 to 300 | O=C1Cc2cc(C(=O)N3CCC(c4ccccc4)CC3)ccc2N1 [Compound 068, 5-(4-phenylpiperidine-1-carbonyl)indolin-2-one]
> 300 | O=C1Cc2cc(C(=O)N3CCC(Cc4ccccc4)CC3)ccc2N1 [Compound 069, 5-(4-benzylpiperidine-1-carbonyl)indolin-2-one]
> 300 | O=C1Cc2ccc(-c3ccc(F)nc3)cc2N1 [Compound 070, 6-(6-fluoropyridin-3-yl)indolin-2-one]
100 to 300 | O=C1Cc2ccc(NC(=O)c3cccnc3)cc2N1 [Compound 071, N-(2-oxoindolin-6-yl)nicotinamide]
100 to 300 | O=C1Cc2cc(NC(=O)c3cccnc3)ccc2N1 [Compound 072, N-(2-oxoindolin-5-yl)nicotinamide]
> 300 | O=C1Cc2cc(-c3ccncc3)ncc2N1 [Compound 073, 5-(pyridin-4-yl)-1,3-dihydro-2H-pyrrolo[2,3-c]pyridin-2-one]
100 to 300 | O=C1Cc2cnc(-c3ccncc3)cc2N1 [Compound 074, 6-(pyridin-4-yl)-1,3-dihydro-2H-pyrrolo[3,2-c]pyridin-2-one]
> 300 | O=C1Cc2ncc(-c3ccncc3)cc2N1 [Compound 075, 6-(pyridin-4-yl)-1,3-dihydro-2H-pyrrolo[3,2-b]pyridin-2-one]
100 to 300 | O=C1Cc2cc(NC(=O)c3ccnc(F)c3)ccc2N1 [Compound 076, 2-fluoro-N-(2-oxoindolin-5-yl)isonicotinamide]
> 300 | NC1CCN(C(=O)c2ccc3c(c2)NC(=O)C3)CC1 [Compound 077, 6-(4-aminopiperidine-1-carbonyl)indolin-2-one]
> 300 | NC1CCN(C(=O)c2ccc3c(c2)CC(=O)N3)CC1 [Compound 078, 5-(4-aminopiperidine-1-carbonyl)indolin-2-one]
> 300 | COC(=O)c1ccccc1-c1ccc2c(c1)NC(=O)C2 [Compound 079, methyl 2-(2-oxoindolin-6-yl)benzoate]
> 300 | NC1CCCN(C(=O)c2ccc3c(c2)NC(=O)C3)C1 (stereo not shown) [Compound 080, 6-(3-aminopiperidine-1-carbonyl)indolin-2-one]
> 300 | NC1CCCN(C(=O)c2ccc3c(c2)CC(=O)N3)C1 (stereo not shown) [Compound 081, 5-(3-aminopiperidine-1-carbonyl)indolin-2-one]
> 300 | CC(C)C1C(=O)Nc2ccc(-c3ccncc3)cc21 (stereo not shown) [Compound 082, 3-isopropyl-5-(pyridin-4-yl)indolin-2-one]
> 300 | CN1C(=O)Cc2cc(C(=O)N3CCCCC3)ccc21 [Compound 083, 1-methyl-5-(piperidine-1-carbonyl)indolin-2-one]
